What all share (assay): ≥ marks a high value that may be exact or a test limit, other limits are often not marked, values filed in µg/mL are converted to µM
Experiment [1] concerns Acinetobacter baumannii CCARM 12005.
In experiment [2] the test system is Acinetobacter baumannii CCARM 12035.
In experiment [3] the test system is Acinetobacter baumannii CCARM 12036.
Experiment [4] concerns Acinetobacter baumannii CCARM 12037.
The subject of experiment [5] is Bacillus subtilis KCTC 1021.
Experiment [6] relates to Bacillus subtilis KCTC 1022.
Experiment [7] relates to Bacillus subtilis KCTC 3068.
In experiment [8] the test system is Escherichia coli CCARM 1229.
Experiment [9] concerns Escherichia coli CCARM 1238.
The subject of experiment [10] is Escherichia coli KCTC 1682.
Experiment [11] relates to Escherichia coli KCTC 2571.
Experiment [12] relates to Escherichia coli KCTC 2593.
The subject of experiment [13] is Pseudomonas aeruginosa CCARM 2002.
Experiment [14] has as its system Pseudomonas aeruginosa CCARM 2003.
In experiment [15] the test system is Pseudomonas aeruginosa CCARM 2095.
The subject of experiment [16] is Pseudomonas aeruginosa CCARM 2163.
Experiment [17] deals with Pseudomonas aeruginosa KCTC 1637.
Experiment [18] deals with Pseudomonas aeruginosa KCTC 2004.
The subject of experiment [19] is Pseudomonas aeruginosa KCTC 2513.
Experiment [20] relates to Salmonella typhimurium CCARM 8003.
Experiment [21] deals with Salmonella typhimurium CCARM 8007.
In experiment [22] the test system is Salmonella typhimurium CCARM 8009.
The test system of experiment [23] is Salmonella typhimurium KCTC 1926.
Experiment [24] deals with Staphylococcus aureus CCARM 3089.
Experiment [25] relates to Staphylococcus aureus CCARM 3090.
Experiment [26] relates to Staphylococcus aureus CCARM 3108.
The test system of experiment [27] is Staphylococcus aureus CCARM 3114.
Experiment [28] concerns Staphylococcus aureus CCARM 3126.
Experiment [29] concerns Staphylococcus aureus KCTC 1621.
Experiment [30] relates to Staphylococcus aureus KCTC 1916.
Experiment [31] relates to Staphylococcus aureus KCTC 3881.
Experiment [32] concerns Staphylococcus epidermidis KCTC 1917.
In experiment [33] the test system is Bacillus subtilis ATCC 62037.
The test system of experiment [34] is Candida albicans ATCC 10231.
Experiment [35] relates to Cryptococcus neoformans ATCC 34881.
For experiment [36], the system named is Escherichia coli ATCC 27325.
Experiment [37] deals with Pseudomonas putida ATCC 17426.
The test system of experiment [38] is Saccharomyces cerevisiae ATCC 44774.
Experiment [39] relates to Salmonella enterica subsp. enterica serovar Enteritidis ATCC 13076.
The test system of experiment [40] is Staphylococcus aureus ATCC 15752.
The subject of experiment [41] is Streptococcus mutans ATCC 25175.

≈ marks a conversion by molar mass, not a printed value.

In general, MIC refers to the lowest concentration found to suppress growth. The low end stands for a more susceptible organism, the high end for a less susceptible organism.

With `CC[C@H](C)[C@H](NC(=O)CNC(=O)[C@H](CCCN=C(N)N)NC(=O)[C@H](Cc1ccccc1)NC(=O)[C@@H](NC(=O)[C@H](Cc1cnc[nH]1)NC(=O)[C@H](Cc1cnc[nH]1)NC(=O)[C@H](CCCCN)NC(=O)[C@@H](N)Cc1ccccc1)[C@@H](C)CC)C(=O)N[C@H](C(=O)N[C@@H](Cc1cnc[nH]1)C(=O)N[C@H](C(=O)NCC(=O)N[C@@H](CCCCN)C(=O)N[C@H](C(=O)N[C@H](C(=O)N[C@@H](Cc1cnc[nH]1)C(=O)N[C@@H](CCCN=C(N)N)C(=O)N[C@@H](CC(C)C)C(=O)N[C@H](C(=O)N[C@H](C(=O)NCC(=O)O)[C@@H](C)O)C(C)C)[C@@H](C)CC)[C@@H](C)O)C(C)C)C(C)C` [FKHHIFRGIVHVGKTIHRLVTG], the MIC came out at 2 µM (≈ 5.11 µg/mL) in experiment [1]; 2 µM (≈ 5.11 µg/mL) in experiment [2]; 2 µM (≈ 5.11 µg/mL) in experiment [3]; 2 µM (≈ 5.11 µg/mL) in [4]; 4 µM (≈ 10.2 µg/mL) in experiment [5]; 1 µM (≈ 2.55 µg/mL) in experiment [6]. For the same compound, the minimum inhibitory concentration (MIC) in experiment [7] stood at 4 µM (≈ 10.2 µg/mL); in [8] it was 16 µM (≈ 40.8 µg/mL); in experiment [9] it was 16 µM (≈ 40.8 µg/mL); in [10], 4 µM (≈ 10.2 µg/mL); in experiment [11], 2 µM (≈ 5.11 µg/mL); in experiment [12], 2 µM (≈ 5.11 µg/mL). Further, the minimum inhibitory concentration (MIC) in experiment [13] was found to be 2 µM (≈ 5.11 µg/mL); in experiment [14], 2 µM (≈ 5.11 µg/mL); in experiment [15], 2 µM (≈ 5.11 µg/mL); in [16] it was 2 µM (≈ 5.11 µg/mL); in experiment [17], 4 µM (≈ 10.2 µg/mL); in experiment [18], 8 µM (≈ 20.4 µg/mL). For the same compound, the MIC amounted to 8 µM (≈ 20.4 µg/mL) in experiment [19]; 16 µM (≈ 40.8 µg/mL) in experiment [20]; 16 µM (≈ 40.8 µg/mL) in experiment [21]; 16 µM (≈ 40.8 µg/mL) in [22]; 8 µM (≈ 20.4 µg/mL) in experiment [23]; 16 µM (≈ 40.8 µg/mL) in [24]. Besides, the minimum inhibitory concentration (MIC) in experiment [25] is 16 µM (≈ 40.8 µg/mL); in experiment [26], 16 µM (≈ 40.8 µg/mL); in experiment [27], 16 µM (≈ 40.8 µg/mL); in experiment [28], 16 µM (≈ 40.8 µg/mL); in experiment [29], 4 µM (≈ 10.2 µg/mL); in [30], 2 µM (≈ 5.11 µg/mL). Moreover, the minimum inhibitory concentration (MIC) in experiment [31] and in experiment [32] was 2 µM (≈ 5.11 µg/mL) throughout.
In the case of `CC[C@H](C)[C@H](NC(=O)CNC(=O)[C@H](CCCN=C(N)N)NC(=O)[C@H](Cc1ccccc1)NC(=O)[C@@H](NC(=O)[C@H](Cc1cnc[nH]1)NC(=O)[C@H](Cc1cnc[nH]1)NC(=O)[C@H](Cc1ccccc1)NC(=O)[C@@H](N)CCCCN)[C@@H](C)CC)C(=O)N[C@@H](CCCCN)C(=O)N[C@@H](Cc1cnc[nH]1)C(=O)N[C@H](C(=O)NCC(=O)N[C@@H](CCCCN)C(=O)N[C@H](C(=O)N[C@H](C(=O)N[C@@H](Cc1cnc[nH]1)C(=O)N[C@@H](CCCN=C(N)N)C(=O)N[C@@H](CC(C)C)C(=O)N[C@H](C(=O)N[C@H](C(=O)NCC(=O)O)[C@@H](C)O)C(C)C)[C@@H](C)CC)[C@@H](C)O)C(C)C` [KFHHIFRGIKHVGKTIHRLVTG], the MIC turned out to be 2 µM (≈ 5.16 µg/mL) in experiment [1]; 2 µM (≈ 5.16 µg/mL) in experiment [2]; 2 µM (≈ 5.16 µg/mL) in [3]; 2 µM (≈ 5.16 µg/mL) in experiment [4]; 4 µM (≈ 10.3 µg/mL) in [5]; 2 µM (≈ 5.16 µg/mL) in [6]. The MIC in experiment [7] came out at 1 µM (≈ 2.58 µg/mL); in experiment [8], 4 µM (≈ 10.3 µg/mL); in experiment [9], 4 µM (≈ 10.3 µg/mL); in experiment [10], 1 µM (≈ 2.58 µg/mL); in experiment [11], 2 µM (≈ 5.16 µg/mL); in [12], 2 µM (≈ 5.16 µg/mL). The MIC in experiment [13] is 2 µM (≈ 5.16 µg/mL); in experiment [14], 2 µM (≈ 5.16 µg/mL); in experiment [15] it was 2 µM (≈ 5.16 µg/mL); in experiment [16], 2 µM (≈ 5.16 µg/mL); in experiment [17] it was 1 µM (≈ 2.58 µg/mL); in experiment [18], 2 µM (≈ 5.16 µg/mL). The MIC in [19] worked out at 2 µM (≈ 5.16 µg/mL); in experiment [20] it was 8 µM (≈ 20.7 µg/mL); in experiment [21] it was 8 µM (≈ 20.7 µg/mL); in [22], 8 µM (≈ 20.7 µg/mL); in experiment [23], 1 µM (≈ 2.58 µg/mL); in [24] it was 4 µM (≈ 10.3 µg/mL). Besides, the MIC came to 4 µM (≈ 10.3 µg/mL) in experiment [25]; 4 µM (≈ 10.3 µg/mL) in [26]; 8 µM (≈ 20.7 µg/mL) in experiment [27]; 4 µM (≈ 10.3 µg/mL) in experiment [28]; 2 µM (≈ 5.16 µg/mL) in [29]; 2 µM (≈ 5.16 µg/mL) in [30]. For the same compound, the figures for the MIC in experiment [31] and in experiment [32] were 2 µM (≈ 5.16 µg/mL) and 1 µM (≈ 2.58 µg/mL), respectively.
Consider `CC(C)[C@H](NC(=O)[C@H](CCCCN)NC(=O)CNC(=O)CNC(=O)[C@H](CCC(N)=O)NC(=O)[C@H](CCCCN)NC(=O)CNC(=O)[C@H](CCCN=C(N)N)NC(=O)CNC(=O)[C@@H](N)CCCCN)C(=O)N[C@@H](CCCN=C(N)N)C(=O)N[C@@H](C)C(=O)N[C@@H](CCCCN)C(=O)N[C@@H](C)C(=O)N[C@@H](CCCCN)C(=O)O` [KGRGKQGGKVRAKAK], for which the minimum inhibitory concentration (MIC) in experiment [33], in experiment [34], in experiment [35], in experiment [36], in [37] and in experiment [38] was 0.637 µM (≈ 1 µg/mL) throughout. Also, the MIC in experiment [39] amounted to 2.55 µM (≈ 4 µg/mL); in experiment [40], 2.55 µM (≈ 4 µg/mL); in experiment [41], 1.27 µM (≈ 2 µg/mL).
On to `CC(C)[C@H](NC(=O)[C@H](CCCCN)NC(=O)CNC(=O)CNC(=O)[C@H](CCC(N)=O)NC(=O)[C@H](CCCCN)NC(=O)CNC(=O)[C@H](CCCN=C(N)N)NC(=O)[C@@H](N)CCCCN)C(=O)N[C@@H](CCCN=C(N)N)C(=O)N[C@@H](C)C(=O)N[C@@H](CCCCN)C(=O)N[C@@H](C)C(=O)N[C@@H](CCCCN)C(=O)N[C@H](C(=O)N[C@@H](CCCN=C(N)N)C(=O)N[C@@H](CO)C(=O)N[C@@H](CO)C(=O)O)[C@@H](C)O` [KRGKQGGKVRAKAKTRSS], for which the MIC is 8.23 µM (≈ 16 µg/mL) in experiment [33]; 8.23 µM (≈ 16 µg/mL) in experiment [34]; 4.12 µM (≈ 8 µg/mL) in experiment [35]; 4.12 µM (≈ 8 µg/mL) in [36]; 8.23 µM (≈ 16 µg/mL) in [37]; 8.23 µM (≈ 16 µg/mL) in experiment [38]. For the same compound, the results for the MIC in experiment [39], in experiment [40] and in experiment [41] were 8.23 µM (≈ 16 µg/mL), 16.5 µM (≈ 32 µg/mL) and 16.5 µM (≈ 32 µg/mL), respectively.
